Laboratory results reported in EPA's CvTdb concentration-time database.

Experiments:
Rat [1] = experiment: concentration in brain after dosing; conditions: 0.5 h; dosed: 2-Methyltetrahydrofuran; 40 mg/kg; iv; Female; Harlan Sprague Dawley
Rat [2] = experiment: concentration in brain after dosing; conditions: 0.5 h; dosed: 2-Methyltetrahydrofuran; 40 mg/kg; iv; Female; Harlan Sprague Dawley; remark: listed apart in the source
Rat [3] = experiment: concentration in brain after dosing; conditions: 7 min; dosed: 2-Methyltetrahydrofuran; 40 mg/kg; iv; Male; Harlan Sprague Dawley
Rat [4] = experiment: concentration in plasma after dosing; conditions: 2 h; dosed: 2-Methyltetrahydrofuran; 40 mg/kg; iv; Male; Harlan Sprague Dawley
Rat [5] = experiment: concentration in plasma after dosing; conditions: 2 min; dosed: 2-Methyltetrahydrofuran; 40 mg/kg; iv; Female; Harlan Sprague Dawley
Rat [6] = experiment: concentration in plasma after dosing; conditions: 1.5 h; dosed: 2-Methyltetrahydrofuran; 40 mg/kg; iv; Male; Harlan Sprague Dawley
Rat [7] = experiment: concentration in liver after dosing; conditions: 3 h; dosed: Fluorotelomer alcohol 8+2; 24 mg/kg; oral; Male; Harlan Sprague Dawley
Rat [8] = experiment: concentration in liver after dosing; conditions: 1 h; dosed: Fluorotelomer alcohol 8+2; 80 mg/kg; oral; Female; Harlan Sprague Dawley
Rat [9] = experiment: concentration in plasma after dosing; conditions: dosed: 678-39-7, 40 mg/kg, iv, Male, F344
Rat [10] = experiment: concentration in plasma after dosing; conditions: dosed: 678-39-7, 12 mg/kg, iv, Male, F344
Rat [11] = experiment: concentration in plasma after dosing; conditions: dosed: Fluorotelomer alcohol 8+2, 12 mg/kg, oral, Male, Harlan Sprague Dawley
Rat [12] = experiment: concentration in kidney after dosing; conditions: 3 h; dosed: Fluorotelomer alcohol 8+2; 24 mg/kg; oral; Male; Harlan Sprague Dawley
Rat [13] = experiment: concentration in plasma after dosing; conditions: dosed: Fluorotelomer alcohol 8+2, 12 mg/kg, oral, Male, Harlan Sprague Dawley; remark: listed apart in the source
Rat [14] = experiment: concentration in plasma after dosing; conditions: 4 h; dosed: Gemfibrozil; 4.29 mg/kg; oral; Male; Sprague-Dawley
Rat [15] = experiment: concentration in plasma after dosing; conditions: 10 min; dosed: Gemfibrozil; 100 mg/kg; oral; Male; Sprague-Dawley
Rat [16] = experiment: concentration in plasma after dosing; conditions: 6 h; dosed: Gemfibrozil; 50 mg/kg; oral; Male; Sprague-Dawley
Rat [17] = experiment: concentration in plasma after dosing; conditions: 10 min; dosed: Gemfibrozil; 4.29 mg/kg; oral; Male; Sprague-Dawley
Rat [18] = experiment: concentration in plasma after dosing; conditions: 18 h; dosed: Gemfibrozil; 4.29 mg/kg; oral; Male; Sprague-Dawley
Rat [19] = experiment: concentration in plasma after dosing; conditions: 18 h; dosed: Gemfibrozil; 100 mg/kg; oral; Male; Sprague-Dawley
Rat [20] = experiment: concentration in plasma after dosing; conditions: 4 h; dosed: Gemfibrozil; 100 mg/kg; oral; Male; Sprague-Dawley
Rat [21] = experiment: concentration in brain after dosing; conditions: 0.5 h; dosed: Perfluorohexanoic Acid; 80 mg/kg; oral; Female; Harlan Sprague Dawley
Rat [22] = experiment: concentration in brain after dosing; conditions: 1 h; dosed: Perfluorohexanoic Acid; 80 mg/kg; oral; Female; Harlan Sprague Dawley
Rat [23] = experiment: concentration in liver after dosing; conditions: 0.5 h; dosed: Perfluorohexanoic Acid; 80 mg/kg; oral; Male; Harlan Sprague Dawley
Rat [24] = experiment: concentration in liver after dosing; conditions: 12 h; dosed: Perfluorohexanoic Acid; 80 mg/kg; oral; Male; Harlan Sprague Dawley
Rat [25] = experiment: concentration in liver after dosing; conditions: 1 h; dosed: Perfluorohexanoic Acid; 80 mg/kg; oral; Female; Harlan Sprague Dawley
Rat [26] = experiment: concentration in liver after dosing; conditions: 6 h; dosed: Perfluorohexanoic Acid; 80 mg/kg; oral; Male; Harlan Sprague Dawley
Rat [27] = experiment: concentration in plasma after dosing; conditions: dosed: Perfluorohexanoic Acid, 40 mg/kg, oral, Male, Harlan Sprague Dawley
Rat [28] = experiment: concentration in kidney after dosing; conditions: 1 h; dosed: Perfluorohexanoic Acid; 80 mg/kg; oral; Male; Harlan Sprague Dawley
Rat [29] = experiment: concentration in plasma after dosing; conditions: 0.75 h; dosed: Perfluorohexanoic Acid; 40 mg/kg; iv; Female; Harlan Sprague-Dawley
Rat [30] = experiment: concentration in plasma after dosing; conditions: 0.25 h; dosed: Perfluorohexanoic Acid; 40 mg/kg; iv; Male; F344
Rat [31] = experiment: concentration in plasma after dosing; conditions: 0.75 h; dosed: Perfluorohexanoic Acid; 40 mg/kg; iv; Female; Harlan Sprague-Dawley; remark: listed apart in the source
Rat [32] = experiment: concentration in plasma after dosing; conditions: 1 h; dosed: Perfluorohexanoic Acid; 40 mg/kg; iv; Female; Harlan Sprague-Dawley
Rat [33] = experiment: concentration in plasma after dosing; conditions: 5 min; dosed: Perfluorohexanoic Acid; 40 mg/kg; iv; Male; F344
Rat [34] = experiment: concentration in plasma after dosing; conditions: 0.75 h; dosed: Perfluorohexanoic Acid; 80 mg/kg; oral; Male; Harlan Sprague Dawley
Rat [35] = experiment: concentration in liver after dosing; conditions: 3360 h; dosed: Perfluorooctane Sulfonate; 2 mg/kg; oral; Female; Harlan Sprague Dawley
Rat [36] = experiment: concentration in brain after dosing; conditions: 24 h; dosed: Perfluorooctane Sulfonate; 2 mg/kg; oral; Female; Harlan Sprague Dawley
Rat [37] = experiment: concentration in liver after dosing; conditions: 3360 h; dosed: Perfluorooctane Sulfonate; 2 mg/kg; oral; Female; Harlan Sprague Dawley; remark: listed apart in the source
Rat [38] = experiment: concentration in liver after dosing; conditions: 24 h; dosed: Perfluorooctane Sulfonate; 2 mg/kg; oral; Female; Harlan Sprague Dawley
Rat [39] = experiment: concentration in brain after dosing; conditions: 6 h; dosed: Perfluorooctane Sulfonate; 20 mg/kg; oral; Male; Harlan Sprague Dawley
Rat [40] = experiment: concentration in plasma after dosing; conditions: dosed: Perfluorooctane Sulfonate, 2 mg/kg, iv, Male, F344

CC1CCCO1 (configuration not stated) [2-Methyltetrahydrofuran]
Conditions	concentration in brain [µg/mL]	concentration in plasma [µg/mL]
Rat [1]	12.7	–
Rat [2]	13.8	–
Rat [3]	31	–
Rat [4]	–	12.1
Rat [5]	–	55.3
Rat [6]	–	11.4

O=C(O)CCC(F)(F)C(F)(F)C(F)(F)C(F)(F)C(F)(F)C(F)(F)C(F)(F)F [Fluorotelomer acid 7+3]
Conditions	concentration in kidney [ng/g]	concentration in liver [ng/g]
Rat [7]	–	2680
Rat [8]	–	1620
Rat [12]	1320	–

Conditions	concentration in plasma [ng/mL]
Rat [9], 0.5 h	470
Rat [9], 9 h	2680
Rat [10], 1 h	502
Rat [10], 6 h	706
Rat [11], 0.75 h	313
Rat [11], 12 h	197
Rat [13], 0.75 h	274
Rat [13], 12 h	110

Cc1ccc(C)c(OCCCC(C)(C)C(=O)O)c1 [Gemfibrozil]
Conditions	concentration in plasma [µg/mL]
Rat [14]	0.596
Rat [15]	50.4
Rat [16]	2.93
Rat [17]	0.606
Rat [18]	0.287
Rat [19]	3.08
Rat [20]	7.12

O=C(O)C(F)(F)C(F)(F)C(F)(F)C(F)(F)C(F)(F)F [Perfluorohexanoic Acid]
Conditions	concentration in brain [ng/g]	concentration in kidney [ng/g]	concentration in liver [ng/g]	concentration in plasma
Rat [21]	943	–	–	–
Rat [22]	1340	–	–	–
Rat [23]	–	–	102000	–
Rat [24]	–	–	1910	–
Rat [25]	–	–	39700	–
Rat [26]	–	–	15400	–
Rat [28]	–	86000	–	–
Rat [29]	–	–	–	113 ng/mL
Rat [30]	–	–	–	14700 ng/mL
Rat [31]	–	–	–	1570 ng/mL
Rat [32]	–	–	–	98.9 ng/mL
Rat [33]	–	–	–	18600 ng/mL
Rat [34]	–	–	–	129 µg/mL

Rat [27]
Conditions	concentration in plasma [ng/mL]
1 h	39400
24 h	423

O=S(=O)([O-])C(F)(F)C(F)(F)C(F)(F)C(F)(F)C(F)(F)C(F)(F)C(F)(F)C(F)(F)F [Perfluorooctane Sulfonate]
Conditions	concentration in brain [ng/g]	concentration in liver [ng/g]
Rat [35]	–	2150
Rat [36]	800	–
Rat [37]	–	3090
Rat [38]	–	22900
Rat [39]	4810	–

Rat [40]
Conditions	concentration in plasma [ng/mL]
6 h	4220
864 h	1290
3216 h	359
